Measurements from patent publication US20210395210A1, “INHIBITION OF BACTERIAL CHAPERONIN SYSTEMS” (THE TRUSTEES OF INDIANA UNIVERSITY, priority 2018, published 2021).
Like-named read-outs stand apart in the source and are kept apart here.

Legend:
human HSP60/10 = target: T1, human HSP60/10 (Homo sapiens, UniProt P10809); experiment: HSP60/10-mediated dMDH refolding assay; type: biochemical; conditions: human HSP60/10-dMDH refolding assay
T1 construct: octa-Histidine tag (TEV-cleavable) (N, cleaved yes); made in house; host or cells: HSP60 in E. coli Rosetta 2 (DE3); HSP10 in Rosetta 2 (DE3) pLysS
Method in brief: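 Preformed HSP60/10 (or GroEL/ES) complex with guanidine-denatured pig heart MDH was started with ATP (during refolding: 50 nM HSP60, 60 nM HSP10, 12 nM dMDH, 1 mM ATP; compounds 100 μM to 46 nM) at 37° C, then EDTA-quenched. Refolded MDH activity read as A340 NADH consumption with mesoxalate.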

[1] = tested on: Drug sensitive Staphylococcus aureus (ATCC 25923); experiment: Bacterial proliferation assay, drug sensitive S. aureus; type: cell-based
Method in brief: (§1)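 Cultures in BHI broth with 25 mg/L Ca2+ and 12.5 mg/L Mg2+ were diluted to OD600 0.017 and exposed to compounds in 384-well plates at 37 °C without shaking. OD600 was read at 6-8 h (S. aureus, E. cloacae, P. aeruginosa) or 24 h (A. baumannii). EC50 values were averaged over quadruplicates.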

[2] = tested on: Enterobacter cloacae (ATCC 13047); experiment: Bacterial proliferation assay, E. cloacae; type: cell-based
Method in brief: as §1

in vitro = conditions: human
Procedure: HEK 293 cells were maintained in MEM medium (Corning Cellgro, 10-009 CV) supplemented with 10% FBS (Sigma, F2242). […] Cells at 80% confluence were harvested and diluted in growth medium, then 45 μL of the THLE-3 cells (1,500 cells/well) or HEK 293 cells (1,500 cells/well) were dispensed per well, and plates were sealed with “Breathe Easy” oxygen permeable membranes (Diversified Biotech) and incubated at 37° C., 5% CO2, for 24 h.

[3] = read-out: HSP60/10-dMDH Refolding IC50
[4] = log(IC50) ± standard deviation, read-out: HSP60/10-dMDH Refolding Assay log(IC50) (converted)
[5] = ATCC25923, OD600 at 6-8 h, read-out: Bacterial Proliferation EC50 S. aureus Sensitive
[6] = ATCC25923, log of EC50 (μM scale), with standard deviation, read-out: log(EC50) Bacterial Proliferation Assay S. aureus Sensitive (converted)
[7] = ATCC13047, OD600 at 6-8 h, read-out: Bacterial Proliferation EC50 E. cloacae
[8] = ATCC13047, log of EC50 (μM scale), with standard deviation, read-out: log(EC50) Bacterial Proliferation Assay E. cloacae (converted)

T1 sequence (P10809 27-573): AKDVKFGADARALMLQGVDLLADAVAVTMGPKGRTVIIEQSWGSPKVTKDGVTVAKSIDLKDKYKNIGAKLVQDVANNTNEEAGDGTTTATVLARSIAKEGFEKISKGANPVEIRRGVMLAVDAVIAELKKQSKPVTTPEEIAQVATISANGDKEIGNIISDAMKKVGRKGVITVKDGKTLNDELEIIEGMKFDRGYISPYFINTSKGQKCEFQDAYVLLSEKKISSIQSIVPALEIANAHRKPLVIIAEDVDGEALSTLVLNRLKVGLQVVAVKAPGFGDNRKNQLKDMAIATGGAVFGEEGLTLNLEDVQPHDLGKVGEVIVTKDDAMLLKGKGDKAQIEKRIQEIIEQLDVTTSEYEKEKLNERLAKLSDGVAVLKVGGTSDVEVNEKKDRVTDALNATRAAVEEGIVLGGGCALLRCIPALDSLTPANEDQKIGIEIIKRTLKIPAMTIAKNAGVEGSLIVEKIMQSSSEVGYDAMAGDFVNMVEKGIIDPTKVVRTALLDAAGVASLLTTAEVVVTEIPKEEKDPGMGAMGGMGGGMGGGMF

COc1ccccc1C(=O)Nc1ccc(Sc2nc3ccccc3s2)cc1 [Compound 36, N-(4-(Benzo[d]thiazol-2-ylthio)phenyl)-2-methoxybenzamide]
> 100 µM: IC50 (human HSP60/10; [3]) | IC50 (human HSP60/10; [4]) | EC50 [1, 5] | EC50 [1, 6] | EC50 [2, 7] | EC50 [2, 8] | CC50 at 48 h (in vitro)

COc1c(Br)cccc1C(=O)Nc1ccc(Sc2nc3ccccc3s2)c(Cl)c1 [Compound 30, N-(4-(Benzo[d]thiazol-2-ylthio)-3-chlorophenyl)-3-bromo-2-methoxybenzamide]
> 100 µM: IC50 (human HSP60/10; [3]) | IC50 (human HSP60/10; [4]) | EC50 [1, 5] | EC50 [1, 6] | EC50 [2, 7] | EC50 [2, 8] | CC50 at 48 h (in vitro)

O=C(Nc1cccc(Cl)c1)c1ccccc1 [Compound 25, N-(3-Chlorophenyl)benzamide]
> 100 µM: IC50 (human HSP60/10; [3]) | IC50 (human HSP60/10; [4]) | EC50 [1, 5] | EC50 [1, 6] | EC50 [2, 7] | EC50 [2, 8] | CC50 at 48 h (in vitro)

COc1c(Br)cccc1C(=O)Nc1ccccc1 [Compound 42, 3-Bromo-2-methoxy-N-phenylbenzamide]
> 100 µM: IC50 (human HSP60/10; [3]) | IC50 (human HSP60/10; [4]) | EC50 [1, 5] | EC50 [1, 6] | EC50 [2, 7] | EC50 [2, 8] | CC50 at 48 h (in vitro)
